{"source": "patent US8084429B2", "about": "“Compounds and their analgesic applications” (priority 2002, dated 2011)", "system": "rat", "experiment": "observation of undesirable effects after intrathecal administration", "assay_type": "in vivo", "protocol": "A silicone catheter was introduced into the intrathecal space of a rat in the cervical region of the spine, having an external diameter of 0.64 mm and an internal diameter of 0.3 mm. The 12 cm long catheter was prepared in the following way: at a distance of 7.5 cm from the end of the catheter, a flange was made around it with soft silicone glue. The remaining 4.5 cm stretch of the catheter was extended to the outside and connected to a 30G needle mounted on a 25 microliter Hamilton syringe. The implantation of the catheter was made under general anaesthesia. After shaving the coat from the shoulders and neck, the rat was placed in a stereotactic apparatus. The 1.5 cm long incision was made centrally, front to rear, along the axis of the spine. After reaching the muscles, they were prised apart and access to the basal membrane was prepared. The basal membrane was incised. The prepared catheter, filled with a sterile physiological saline solution, was inserted the through the incision in the membrane to a depth of 7.5 cm towards the rear, so that its end was found at the location of the L1. The muscle and skin were sutured. After recovery from general anaesthesia the rats were placed in separate cages. Biphaline was administered and measurements were made during the second day following the operation. All epidural injections were made at a constant volume of 10 microliters. Following the injection, the catheter was rinsed with 15 microliters of sterile physiological saline solution. Analgesis was measured in relation to a tail retraction test to which a thermal stimulus was applied in the form of a beam of light with a temperature of 55° C. The temperature and focus of the light was such that the time of reaction of the rat fit within the 2-3 second margin. The maximum time that the tail was agitated with the pain-stimulating light stimulus was set as 7 seconds, so as not to cause tail burns connected with a prolonged exposure of tissues to temperature. The pain-stimulating stimulus threshold was determined previous to administration of the compounds, as well as at the 5, 15, 30, 60 and 120 minutes following the administration. The degree of analgesis was expressed as a percent of the maximum possible effect (denoted as % MPE) according to the following equation: […]", "note": "Starred links: 1 amine or outer side, 2 acyl side, 3 side chain; linkers in the order of their positions; H or OH if unused. Positions of bridges follow the written chain, without caps; N, C: chain ends. Non-standard residues stand in square brackets, D forms with d. Residues, ends and D or L forms follow the SMILES beside them. Chains are numbered I, II in the order given. NHNH = N(N[*:2])[*:1]", "data": [{"smiles": "CSCC[C@@H](NC(=O)[C@@H](N)Cc1ccc(O)cc1)C(=O)NCC(=O)N[C@@H](Cc1ccccc1)C(=O)NNC(=O)[C@H](Cc1ccccc1)NC(=O)CNC(=O)[C@@H](CCSC)NC(=O)[C@@H](N)Cc1ccc(O)cc1", "note": "[(Tyr-D-Met-Gly-Phe-NH—)2, (Tyr-D-Met-Gly-Phe-NH-)2] (I: H-Y[dM]GF / II: H-Y[dM]GF; linker I:C-II:C via NHNH)", "values": [{"measurement": "undesirable effects", "setting": "0.05 micrograms intrathecal", "result": "No undesirable effects were observed"}]}, {"smiles": "C[C@H](O)[C@@H](NC(=O)[C@@H](N)Cc1ccc(O)cc1)C(=O)NCC(=O)N[C@@H](Cc1ccccc1)C(=O)NNC(=O)[C@H](Cc1ccccc1)NC(=O)CNC(=O)[C@H](NC(=O)[C@@H](N)Cc1ccc(O)cc1)[C@H](C)O", "note": "[(Tyr-D-Thr-Gly-Phe-NH—)2, (Tyr-D-Thr-Gly-Phe-NH-)2] (I: H-Y[dT]GF / II: H-Y[dT]GF; linker I:C-II:C via NHNH)", "values": [{"measurement": "undesirable effects", "setting": "0.05 micrograms intrathecal", "result": "No undesirable effects were observed"}]}, {"smiles": "C[C@@H](NC(=O)[C@@H](N)Cc1ccc(O)cc1)C(=O)NCC(=O)N[C@@H](Cc1ccccc1)C(=O)NNC(=O)[C@H](Cc1ccccc1)NC(=O)CNC(=O)[C@@H](C)NC(=O)[C@@H](N)Cc1ccc(O)cc1", "note": "[biphaline, (Tyr-D-Ala-Gly-Phe-NH-)2]", "values": [{"measurement": "undesirable effects", "setting": "0.005 micrograms, then 0.003 micrograms every half hour for 8 hours, intrathecal", "result": "No undesirable effects were observed"}, {"measurement": "undesirable effects", "setting": "0.5 micrograms intrathecal", "result": "No undesirable effects were observed"}, {"measurement": "duration of stiffness", "setting": "25 micrograms intrathecal", "result": 4, "unit": "h"}, {"measurement": "muscle stiffness", "setting": "25 micrograms intrathecal, after three minutes following the injection", "result": "stiffness of limb and back muscles was observed"}, {"measurement": "respiratory ability", "setting": "25 micrograms intrathecal, during stiffness", "result": "respiratory ability was maintained"}, {"measurement": "respiratory depression", "setting": "extremely high dosages, as much as a thousand-fold the minimal effective analgesic dose", "result": "did not cause respiratory depression"}]}, {"smiles": "CC(C)C[C@@H](NC(=O)[C@@H](N)Cc1ccc(O)cc1)C(=O)NCC(=O)N[C@@H](Cc1c[nH]c2ccccc12)C(=O)NNC(=O)[C@H](Cc1c[nH]c2ccccc12)NC(=O)CNC(=O)[C@@H](CC(C)C)NC(=O)[C@@H](N)Cc1ccc(O)cc1", "note": "[(Tyr-D-Leu-Gly-Trp-NH—)2, (Tyr-D-Leu-Gly-Trp-NH-)2] (I: H-Y[dL]GW / II: H-Y[dL]GW; linker I:C-II:C via NHNH)", "values": [{"measurement": "undesirable effects", "setting": "0.05 micrograms intrathecal", "result": "No undesirable effects were observed"}]}, {"smiles": "NC(=O)CC[C@@H](NC(=O)[C@@H](N)Cc1ccc(O)cc1)C(=O)NCC(=O)N[C@@H](Cc1ccccc1)C(=O)NNC(=O)[C@H](Cc1ccccc1)NC(=O)CNC(=O)[C@@H](CCC(N)=O)NC(=O)[C@@H](N)Cc1ccc(O)cc1", "note": "[(Tyr-D-Gln-Gly-Phe-NH—)2, (Tyr-D-Gln-Gly-Phe-NH-)2] (I: H-Y[dQ]GF / II: H-Y[dQ]GF; linker I:C-II:C via NHNH)", "values": [{"measurement": "undesirable effects", "setting": "0.05 micrograms intrathecal", "result": "No undesirable effects were observed"}]}]}
